# Test results reported in publication PMC7812675 (ACS Medicinal Chemistry Letters, 2020).
# Like-named read-outs stand apart in the source and are kept apart here. Square brackets hold non-standard residues; d marks the D form. Peptide text beside a SMILES is read from it. Hyp = O=C(O)[C@@H]1C[C@@H](O)CN1
# Columns and labels:
# [1] = target: T1, VHL/EloB/EloC complex (VBC) (Homo sapiens, UniProt P40337); test: Competitive MST assay, unlabeled peptides against VHL and FAM reporter peptide; format: binding; details: ± confidence interval
# T1 construct: VHL54-213 fused to an N-terminal TwinStrep-tag; TwinStrep-tag (TEV site) (N, cleaved yes); made in house; host or cells: E. coli BL21(DE3)
# [2] = target: T2, MsCI4 (MsCI4WW/FF) (Magnetospirillum gryphiswaldense, UniProt A4TVL0, W36F/W59F); details: cited from earlier work
# [3] = target: T3, human CRBN (hCRBN) thalidomide binding domain (hTBD) (Homo sapiens, UniProt Q96SW2); test: Competitive MST assay with BODIPY-uracil reporter and hTBD; details: for binding to hTBD in the MST assay (words; n.b., no binding): 10 µM hTBD/200 nM BODIPY-uracil
# T3 construct: 319-425; GST (thrombin site) (N, cleaved yes); made in house; host or cells: E. coli Rosetta 2(DE3)pLysS
# [4] = target: T4, Magnetospirillum gryphiswaldense cereblon isoform 4 (MsCI4) (Magnetospirillum gryphiswaldense, UniProt A4TVL0); format: binding; details: competitive DMSO titration
# T4 construct: made in house
# T4 sequence (A4TVL0 1-124): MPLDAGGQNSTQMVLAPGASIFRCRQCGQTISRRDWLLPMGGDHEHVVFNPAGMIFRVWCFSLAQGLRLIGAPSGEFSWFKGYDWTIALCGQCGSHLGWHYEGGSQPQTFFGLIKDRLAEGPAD
# [5] = target: T2, MsCI4 (MsCI4WW/FF); details: MANT-uracil reporter
# [6] = target: T4, Magnetospirillum gryphiswaldense cereblon isoform 4 (MsCI4); format: binding; details: initial fluorescence measurement, 200 nM BODIPY-uracil
# [7] = target: T3, human CRBN (hCRBN) thalidomide binding domain (hTBD); test: Initial fluorescence (quenching) titration of hTBD against BODIPY-uracil; details: initial fluorescence measurement, 200 nM BODIPY-uracil
# [8] = IC50, FAM-11mer competition, 570 nM VBC/20 nM FAM-11mer reporter
# [9] = IC50, FAM-19mer competition, 80 nM VBC/20 nM FAM-19mer reporter
compound,measurement,setting,value
CC[C@H](C)[C@H](NC(=O)[C@H](Cc1ccc(O)cc1)NC(=O)[C@@H]1C[C@@H](O)CN1C(=O)[C@H](C)NC(=O)[C@H](CC(C)C)NC(=O)[C@H](C)NC(=O)[C@H](CCC(=O)O)NC(=O)[C@@H](N)CC(=O)O)C(=O)N1CCC[C@H]1C(=O)N[C@@H](CCSC)C(=O)N[C@@H](CC(=O)O)C(=O)N[C@@H](CC(=O)O)C(=O)N[C@@H](CC(=O)O)C(=O)N[C@@H](Cc1ccccc1)C(=O)N[C@@H](CCC(N)=O)C(=O)N[C@@H](CC(C)C)C(=O)N[C@@H](CCCNC(=N)N)C(=O)N[C@@H](CO)C(=O)N[C@@H](Cc1ccccc1)C(=O)O [19mer],IC50,[1]; [8],803 ± 450 nM
same,IC50,[1]; [9],572 ± 260 nM
CC[C@H](C)[C@H](NC(=O)[C@H](Cc1ccc(O)cc1)NC(=O)[C@@H]1C[C@@H](O)CN1C(=O)[C@H](C)NC(=O)[C@H](CC(C)C)NC(=O)[C@H](C)NC(=O)[C@H](CCC(=O)O)NC(=O)[C@@H](N)CC(=O)O)C(=O)N1CCC[C@H]1C(=O)N[C@@H](CCSC)C(=O)N[C@@H](CC(=O)O)C(=O)O [11mer] (H-DEALA[Hyp]YIPMD-OH),IC50,[1]; [8],1800 ± 810 nM
same,IC50,[1]; [9],1420 ± 950 nM
"O=c1ccn([C@@H]2O[C@H](CO)[C@@H](O)[C@H]2O)c(=O)[nH]1 [Uridine, uridine]",affinity to MsCI4 in the FRET assay,[2],high affinity
"O=c1ccn([C@@H]2O[C@H](COP(=O)(O)O)[C@@H](O)[C@H]2O)c(=O)[nH]1 [UMP, uridine-5′-monophosphate]","binding to hTBD in the MST assay (words; n.b., no binding)",[3],abolished binding completely
DMSO,"Ki as corresponding concentration of DMSO, MsCI4",[4],0.08 % (v/v)
same,"Ki as corresponding concentration of DMSO, hTBD",[3]; competitive DMSO titration,1.0 % (v/v)
"O=C1CN(/N=C/c2ccccc2)C(=O)N1 [1-Benzylidene-aminohydantoin, 1-benzylideneaminohydantoin]",binding to MsCI4 in the FRET assay (words),[5],absence of affinity
"O=C1CN(/N=C/c2ccc([N+](=O)[O-])o2)C(=O)N1 [Nitrofurantoin, nitrofurantoin]","binding to hTBD in the MST assay (words; n.b., no binding)",[3],did not show any binding
same,binding to MsCI4 in the FRET assay (words),[5],do not show binding
same,binding to MsCI4 in the FRET assay (words),[5]; listed as nitrofurantoin,did not show any binding
"O=C1CN(/N=C/c2ccccc2[N+](=O)[O-])C(=O)N1 [2-NP-AHD, 1-(2-nitrobenzylideneamino)hydantoin]",binding to MsCI4 in the FRET assay (words),[5],absence of affinity
CC1=CC(C)=[N+]2C1=C(CCC(=O)NCCn1ccc(=O)[nH]c1=O)c1c(C)cc(C)n1[B-]2(F)F [BODIPY-uracil],Kd,[6],3800 nM
same,Kd,[7],11000 nM
